Reference: article PMC3066212, “Functional Divergence among Silkworm Antimicrobial Peptide Paralogs by the Activities of Recombinant Proteins and the Induced Expression Profiles” (PLoS ONE, 2011)

Experiments:
[1] = tested on: ten tested bacteria (five Gram-positive, five Gram-negative); test: Ultrasensitive radial diffusion, antimicrobial spectrum; type: cell-based; details: 5 µmol/L, 10 µL in 2.7 mm pore on LB-medium plates, 37°C 24 h, n = 3 (Fig. 3)
R. dolaanacearum = type: cell-based, Ralstonia dolaanacearum
X. pv. campestris = test: Ultrasensitive radial diffusion; type: cell-based, Xanthomons pv. campestris; details: 5 µmol/L, 10 µL, 37°C 24 h (Fig. 3)
S. aureus = test: Ultrasensitive radial diffusion; type: cell-based, Staphylococcus aureus; details: 5 µmol/L, 10 µL, 37°C 24 h (Fig. 3)
Description: Figure 3 The antimicrobial spectrum of paralogs among each AMP gene family. The following microbes were used to test antimicrobial activities: Gram-positive bacteria: S. aureus (Sa), B. bombysepticus (Bb), B. subtilis (Bs), B. thuringiensis (Bt), B. thuringiensis subsp. galleriae (Btsg); Gram-negative bacteria: E. coli (Ec), S. marcescens (Sm), P. aeruginosa (Pa), X. pv. campestris (Xpc), R. dolaanacearum (Rd). Each sample (5 µmol/L, 10 µL) was dropped into the 2.7 mm pore on LB-medium plates and incubated at 37°C for 24 h as shown in Figure S3 for moricin family. The measure unit is millimeter (mm). […] Differences were significant at *P<0.01 among each recombinant AMP family.
B. mori strain Dazao was from the Sericulture & Agri-Food Research Institute, Guangdong Academy of Agricultural Sciences, China. E. coli Rosetta™(DE3) strain was used to express recombinant AMPs. […]
Antimicrobial activity of purified expression products was assayed using the ultrasensitive radial diffusion method and the MICs method seeded with Gram-negative or Gram-positive bacteria. […] The size of the clear area around the bacteria was measured, as shown in Figure S3 for the moricin family. […] Absorbance at 595 nm was measured and was repeated three times, and the MICs determined when the average absorbance was equal to the control sample.

## MNFSRALFYVFAVFLVCASVMAAPEPRWKIFKKIEKVGQNIRDGIIKAGPAVAVVGQAATIAHGK [BmcecE, recombinant silkworm cecropin paralog, E subtype, two extra N-terminal residues (Ala-Met)]
[1]
  antimicrobial spectrum among the ten tested bacteria: five of ten tested bacteria

## MNILKLFLVFMVAMSLVSCSTAAPAKIP--IKAIKTVGKAVGKGLRAINIASTANDVFNFLKPKKRKH [Bmmor, recombinant silkworm moricin, two extra N-terminal residues (Ala-Met)]
[1]
  antimicrobial spectrum among the ten tested bacteria: nine of ten tested bacteria
R. dolaanacearum
  Minimal growth inhibition concentration (MIC), R. dolaanacearum: 1.25 µM

## MNFVKILCVVLALMLALSMASAALEPKRKVFKIIEKIGRNVRGGVITAGPAVVVVGQAASVGM [BmcecC, recombinant silkworm cecropin paralog, C subtype, two extra N-terminal residues (Ala-Met)]
[1]
  antimicrobial spectrum among the ten tested bacteria: no ability to inhibit the growth

## MNFAKILSFVFALVLALSMTSAAPEPRWKIFKKIEKMGRNIRDGIVKAGPAIEVLGSAKAIGK [BmcecB6, recombinant silkworm cecropin paralog representing B subtype, two extra N-terminal residues (Ala-Met)]
[1]
  antimicrobial spectrum among the ten tested bacteria: eight of ten tested bacteria
X. pv. campestris
  antimicrobial activity against X. pv. campestris: not inhibited
S. aureus
  antimicrobial activity against S. aureus: not inhibited

## MNFVRILSFVFALVLALGAVSAAPEPRWKLFKKIEKVGRNVRDGLIKAGPAIAVIGQAKSLGK [BmcecA1, recombinant silkworm cecropin paralog, A subtype, EK-digested, two extra N-terminal residues (Ala-Met)]
[1]
  antimicrobial spectrum among the ten tested bacteria: five of ten tested bacteria

## MDFLKYFIVVLVALSLMVCSGQADPKIP--VKSLKKGGKIIAKGFKVLTAAGTAHEVYSHVRNRGNQG [BmmorLA1, recombinant silkworm moricin-like A1, two extra N-terminal residues (Ala-Met)]
R. dolaanacearum
  Minimal growth inhibition concentration (MIC), R. dolaanacearum: 1.25 µM
